Source: patent US20260232713A1, “PLECOMACROLIDE DERIVATIVES FOR MHC-I NEF DOWNMODULATION” (priority 2022, published 2026)
“Also recorded” adds a separate entry of the source. Read-outs that look alike come from different tables or passages of the source.

What was measured:
HIV-Nef = target: T1, HIV-Nef (Human immunodeficiency virus type 1, UniProt P03406); test: Inhibition of HIV-Nef downmodulation of MHC-I HLA-A2 on the surface of HIV ΔGPE infected primary CD4+ T cells (flow cytometry); format: cell-based; conditions: for IC50 / Nef (Nef IC50): HLA-A2 surface expression, ΔGPE infected primary CD4+ T cells, 24 hours after treatment
T1 sequence (P03406 2-206): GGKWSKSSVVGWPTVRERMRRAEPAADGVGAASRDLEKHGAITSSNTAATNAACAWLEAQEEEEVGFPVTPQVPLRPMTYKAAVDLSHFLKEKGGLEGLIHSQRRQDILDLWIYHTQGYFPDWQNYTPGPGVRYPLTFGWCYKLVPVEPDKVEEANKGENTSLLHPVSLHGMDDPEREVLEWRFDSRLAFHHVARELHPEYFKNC

V-ATPase = target: T2, V-ATPase (Homo sapiens, UniProt P27449); test: Lysosomal acidification (Lysotracker mean fluorescence intensity) as indicator of V-ATPase activity in primary CD4+ T cells; format: cell-based
T2 construct: endogenous in cells; host or cells: primary CD4+ T cells (HIV ΔGPE infected) from donor PBMCs
Method: (§1) Inhibition of HIV-Nef was measured by assessing its capacity to downmodulate MHC-I HLA-A2 on the surface of primary CD4+ T cells 24-hours after treatment with each compound. V-ATPase inhibition was assessed at the same time point using lysosomal acidification as an indicator of V-ATPase activity. This was measured using a flow cytometric assay that quantified Lysotracker mean fluorescence intensity as previously described (Painter et al., 2020). Cell viability was measured at 24-hour and 72-hour time points using a previously described flow cytometric assay (Painter et al., 2020).
(§2) Anonymized leukocytes isolated by apheresis were obtained from New York Blood Center and peripheral blood mononuclear cells (PBMCs) were isolated by Ficoll-Paque Plus (17144002; GE Healthcare) centrifugation using SepMate tubes (85450; StemCell Technologies) according to the manufacturers protocol. […] Then, 20-24 hours post-PHA activation, 15 mL of R10/PHA medium is removed and replaced with 5 mL of R10+100u/mL Recombinant Human IL-2 (202|L010; R&D Systems). 48 hours after IL-2 stimulation, primary CD4^+ T cells were infected via spinoculation with previously described HIV ΔGPE construct.
(§3) 48 hours after spinoculation, cells were pooled and plated in flat bottom 96-well plate. […] Compounds were thawed at room temperature and diluted in R10 medium to 2× starting concentration.
(§4) All ΔGPE infected cells were collected 24 hours after treatment.
(§5) All statistical analyses were performed using GraphPad Prism software. Curves were generated using GraphPad Prism software using [Inhibitor] vs. response with variable slope (four parameters).

primary CD4+ T cells = test: in vitro; conditions: for Viability:Nef (therapeutic window separating Nef IC50 and TC50): ratio TC50 to Nef IC50; for CC50: read-out: Viability (TC50), mock primary CD4+ T cells, 72 hours after treatment
Method: as §1, §2, §3, §4
(§6) All Mock cells were collected 72 hours after treatment.
as §5

in vitro = conditions: human
Method: as §1, §2, §3, §4, §6, §5

[1] = Lysotracker Red, ΔGPE infected primary CD4+ T cells, 24 hours after treatment, read-out: Lysotracker (V-ATPase IC50, lysosomal neutralization)
[2] = Lysotracker Red, ΔGPE infected primary CD4+ T cells, 24 hours after treatment

T2 sequence (P27449 whole entry, looked up): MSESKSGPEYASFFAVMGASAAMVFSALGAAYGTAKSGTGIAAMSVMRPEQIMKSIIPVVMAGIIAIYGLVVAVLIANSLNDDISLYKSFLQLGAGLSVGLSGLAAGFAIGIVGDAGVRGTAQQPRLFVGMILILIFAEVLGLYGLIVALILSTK

Compound	Viability:Nef (therapeutic window separating Nef IC50 and TC50) (primary CD4+ T cells)	IC50 (V-ATPase)	CC50 (in vitro)	other results
21-Deoxy CMF [Compound S24]	2.2 fold	–	–	IC50 (HIV-Nef): 4.5 nM; IC50 (V-ATPase; [1]): 32 nM; CC50 (primary CD4+ T cells): 9.4 nM
CNC(=O)O[C@@H](CC(C)C)c1nc([C@H]2OC(=O)/C(C)=C/C/C(C)=C/[C@@H](O)[C@@H](C)\C=C(C)/C=C(C)\C=C\[C@@H](O)[C@H](C)[C@H](OC)/C(C)=C/C=C/[C@@H]2C)cs1 [Compound 3, Archazolid A, reference compound]	–	–	–	IC50 (HIV-Nef): 0.47 nM; IC50 (V-ATPase; [1]): 1.6 nM
CO/C1=C\C(C)=C\[C@@H](C)[C@@H](O)[C@@H](C)C/C(C)=C/C=C/[C@H](OC)[C@@H]([C@@H](C)[C@@H](O)[C@H](C)[C@@]2(OC)C[C@@H](O)[C@H](C)C(C(C)C)O2)OC1=O (some centres unmarked) [Compound S4, Bafilomycin A2]	1.2 fold	24 nM	13 nM	–
CO/C1=C\C(C)=C\[C@@H](C)[C@@H](O)[C@@H](C)C/C(C)=C/C=C/[C@H](OC)[C@@H]([C@@H](C)[C@@H](O)[C@H](C)[C@H]2C[C@@H](OC)[C@H](C)[C@@H](C(C)C)O2)OC1=O [Compound S6]	1.4 fold	52 nM	28 nM	–
CO/C1=C\C(C)=C\[C@@H](C)[C@@H](O)[C@@H](C)C/C(C)=C/C=C/[C@H](OC)[C@@H]([C@@H](C)[C@@H](O)[C@H](C)[C@@]2(O)C[C@@H](OC(C)=O)[C@H](C)C(C(C)C)O2)OC1=O (some centres unmarked) [Compound S9]	2.4 fold	23 nM	10 nM	–
CCCCCCCCC(=O)O[C@@H]1C[C@](O)([C@@H](C)[C@H](O)[C@H](C)[C@H]2OC(=O)/C(OC)=C/C(C)=C/[C@@H](C)[C@@H](O)[C@@H](C)C/C(C)=C/C=C/[C@@H]2OC)O[C@H](C(C)C)[C@H]1C [Compound S11]	1.1 fold	150 nM	140 nM	–
C=C/C=C/C(=O)O[C@@H]1C[C@](O)([C@@H](C)[C@H](O)[C@H](C)[C@H]2OC(=O)/C(OC)=C/C(C)=C/[C@@H](C)[C@@H](O)[C@@H](C)C/C(C)=C/C=C/[C@@H]2OC)O[C@H](C(C)C)[C@H]1C [Compound S12]	1.4 fold	24 nM	22 nM	–
COC1=CC(C)=CC(C)C(O)C(C)CC(C)=CC=CC(OC)C(C(C)C(O)C(C)C2(O)CC(OC3OC(C)C(O)C(O)C3OC)C(C)C(C(C)C)O2)OC1=O (centres unmarked) [Compound S14, Leucanicidin, reference compound]	1.3 fold	2.5 nM	1.4 nM	–
CC=CC=CC1OC(O)(C(C)C(O)C(C)C2OC(=O)C(OC)=CC(C)=CC(C)C(O)C(C)CC(C)=CC=CC2OC)CC(OC2CC(O)C(O)C(C)O2)C1C (centres unmarked) [Compound S15, PC-766B, reference compound]	1.1 fold	2.5 nM	1.3 nM	–
CO/C1=C\C(C)=C\[C@@H](C)C(=O)[C@@H](C)C/C(C)=C/C=C/[C@H](OC)[C@@H]([C@@H](C)[C@@H](O)[C@H](C)[C@@]2(O)C[C@@H](O)[C@H](C)[C@@H](C(C)C)O2)OC1=O [Compound S17]	–	> 1000 nM	–	Nef (Nef IC50) (HIV-Nef): abrogation of activity at all concentrations tested; also recorded: above the activity threshold; Lysotracker (V-ATPase IC50, lysosomal neutralization) (V-ATPase; [2]): above the activity threshold; CC50 at 72 h (in vitro): > 1000 nM
CO/C1=C\C(C)=C\[C@@H](C)C(=O)[C@@H](C)C/C(C)=C/C=C/[C@H](OC)[C@@H]([C@@H](C)[C@@H](O)[C@H](C)[C@@]2(O)CC(=O)[C@H](C)[C@@H](C(C)C)O2)OC1=O [Compound S18]	–	> 1000 nM	> 1000 nM	Nef (Nef IC50) (HIV-Nef): above the activity threshold; Lysotracker (V-ATPase IC50, lysosomal neutralization) (V-ATPase; [2]): above the activity threshold
CO/C1=C\C(C)=C\[C@@H](C)[C@@H](OC(C)=O)[C@@H](C)C/C(C)=C/C=C/[C@H](OC)[C@@H]([C@@H](C)[C@@H](O)[C@H](C)[C@@]2(O)C[C@@H](OC(C)=O)[C@H](C)C(C(C)C)O2)OC1=O (some centres unmarked) [Compound S19]	1.8 fold	530 nM	440 nM	–
C#CCCC(=O)O[C@@H]1C[C@H]([C@@H](C)[C@H](O)[C@H](C)[C@H]2OC(=O)/C(OC)=C/C(C)=C/[C@@H](C)[C@@H](O)[C@@H](C)C/C(C)=C/C=C/[C@@H]2OC)O[C@H](C(C)C)[C@H]1C [Compound S28]	1.7 fold	61 nM	36 nM	–
C/C=C/CC(=O)O[C@@H]1C[C@](O)([C@@H](C)[C@H](O)[C@H](C)[C@H]2OC(=O)/C(OC)=C/C(C)=C/[C@@H](C)[C@@H](O)[C@@H](C)C/C(C)=C/C=C/[C@@H]2OC)OC(C(C)C)[C@H]1C (some centres unmarked) [Compound S29]	1.6 fold	47 nM	39 nM	–
C/C=C/[C@H]1O[C@@](O)([C@@H](C)[C@H](O)[C@H](C)[C@H]2OC(=O)/C(OC)=C/C(C)=C/[C@@H](C)[C@@H](O)[C@@H](CC)[C@@H](O)[C@H](C)C/C(C)=C/C=C/[C@@H]2OC)C[C@@H](O[C@@H]2C[C@H](OC(C)=O)[C@@H](OC(C)=O)[C@H](C)O2)[C@@H]1C [Compound S48, 3′,4-diacetyl CMC]	1.8 fold	3.1 nM	1.3 nM	–
C/C=C/[C@H]1O[C@@](O)([C@@H](C)[C@H](O)[C@H](C)[C@H]2OC(=O)/C(OC)=C/C(C)=C/[C@@H](C)[C@@H](O)[C@@H](CC)[C@@H](OC(C)=O)[C@H](C)C/C(C)=C/C=C/[C@@H]2OC)C[C@@H](O[C@@H]2C[C@H](OC(C)=O)[C@@H](OC(C)=O)[C@H](C)O2)[C@@H]1C [Compound S49, 3′,4′,9-triaceyl CMC]	1.8 fold	11 nM	4.5 nM	–
C/C=C/[C@H]1O[C@@](O)([C@@H](C)[C@H](O)[C@H](C)[C@H]2OC(=O)/C(OC)=C/C(C)=C/[C@@H](C)[C@@H](O)[C@@H](CC)[C@@H](O)[C@H](C)C/C(C)=C/C=C/[C@@H]2OC)C[C@@H](OC(C)=O)[C@@H]1C [Compound S50, 23-Acetyl CMF]	5.8 fold	6.1 nM	6.1 nM	–
CO/C1=C\C(C)=C\[C@@H](C)[C@@H](O)[C@@H](C)C/C(C)=C/C=C/[C@H](OC)[C@@H]([C@@H](C)[C@@H](O)[C@H](C)[C@@]2(O)C[C@@H](OC=O)[C@H](C)[C@@H](C(C)C)O2)OC1=O [Compound S61]	2.6 fold	12 nM	7.3 nM	–
C/C=C/[C@H]1O[C@@H]([C@@H](C)[C@H](O)[C@H](C)[C@H]2OC(=O)/C(OC)=C/C(C)=C/[C@@H](C)[C@@H](O)[C@@H](CC)[C@@H](O)[C@H](C)C/C(C)=C/C=C/[C@@H]2OC)C[C@@H](O[C@@H]2C[C@H](O)[C@@H](O)[C@H](C)O2)[C@@H]1C [Compound S62, 21-Deoxy CMC]	1.8 fold	6 nM	2 nM	–
Elaiophylin [Compound S16, reference compound]	–	–	–	IC50 (HIV-Nef): 250 nM; Fold decrease in Nef potency compared to 2 (HIV-Nef; […]): 20 fold; CC50 (primary CD4+ T cells): 160 nM
